Key:
[1] = In vitro growth inhibitory concentration against human mammary carcinoma cell line MDA MB 468 using MTT assay; assay type: functional
[2] = Percent of apoptosis in MDA MB 468 Cell line determined by Annexin-V-FITC/PI analysis at 250 nM; assay type: functional, Homo sapiens
[3] = Percent of apoptosis in MDA MB 468 Cell line determined by Annexin-V-FITC/PI analysis at 10 uM; assay type: functional, Homo sapiens
[4] = In vitro growth inhibitory concentration against human mammary carcinoma cell line MDA MB 468; assay type: functional
[5] = tested on: HCT-116; assay: In vitro growth inhibitory concentration against human colon cancer cell line HCT 116; assay type: functional

Oc1ccccc1/C=C/c1ccc(F)c(F)c1
GI50 [1]: 1100 nM

Oc1cccc(/C=C/c2ccc(F)c(F)c2)c1
GI50 [1]: 1600 nM

COc1cc(/C=C/c2cccc(O)c2)cc(OC)c1
GI50 [1]: 960 nM

CC[C@@]1(O)C(=O)OCc2c1cc1n(c2=O)Cc2cc3ccccc3nc2-1 [CAMPTOTHECIN]
Apoptosis [2]: 37%

Oc1cccc(/C=C/c2ccccc2F)c1
GI50 [1]: 1400 nM

COc1ccccc1/C=C/c1cccc(O)c1
Apoptosis [3]: 20%

Oc1ccc(/C=C/c2cc(O)cc(O)c2)cc1 [RESVERATROL]
GI50 [4]: > 40000 nM | GI50 [5]: > 40000 nM | Apoptosis [3]: 4%
